{"source": "patent US11898161B2", "about": "“Stem cell culture medium and method” (RIKEN, priority 2006, dated 2024)", "type_in_all_cases": "cell-based", "key": {"human ES cells (KhES-1) [1]": {"system": "human ES cells (KhES-1)", "experiment": "TUNEL apoptosis assay in suspension culture of dissociated human ES cells", "conditions": "after 2-day suspension culture; 80% in non-supplemented control", "procedure": "(§1) Human ES cells subjected to maintenance culture were detached as small cell clumps (aggregates) from feeder cells in the same manner as in Example 1, and after removal of residual feeder cells, they were dissociated into single cells by trypsin digestion. After centrifugation, 2×10^5 cells were dissociated in serum-free culture medium for post differentiation induction (Watanabe et al., Nature Neuroscience 8, 288-296, 2005; supplemented with G-MEM, KSR and 2-mercaptoethanol, KSR was added at a concentration of 20%). The singly-dissociated human ES cells (1.0×10^5 cells/ml) were suspension-cultured in a non-cell adhesive 35 mm culture plate to form aggregates, and were cultured in the same culture medium for 2-6 days (SFEB method; See the above reference of Watanabe et al.). After 2-day culture, the percentage of apoptic cells was measured by TUNEL method (MEBSTAIN Apoptosis kit Direct, MBL). Treatment with ROCK inhibitor, Y-27632, was initiated at 1 hour before cell separation in the same manner as in Example 1, and the inhibitor was added to maintenance culture medium also after dissociation. For comparison, caspase inhibitor (ZVAD; 10 μM) and BDNF/NT-3/NT-4 (mixture of 50 ng/ml each), whose apoptosis suppressive effect has been reported, were used to conduct the experiment. In addition, the number of surviving cells on day 6 was counted in each case."}, "human ES cells (KhES-1) [2]": {"system": "human ES cells (KhES-1)", "experiment": "Number of surviving cells in suspension culture (SFEB) of dissociated human ES cells", "conditions": "8% in non-supplemented group", "procedure": "as §1"}, "human ES cells [3]": {"system": "human ES cells", "experiment": "Differentiation induction into neuronal and brain precursor cells by SFEB method from singly-dissociated human ES cells", "from_the_text": "Human ES cells subjected to maintenance culture were detached from feeder cells as small cell clumps in the same manner as in Example 4, and after removal of residual feeder cells, they were dissociated into single cells by trypsin digestion. After centrifugation, cells were dissociated into culture medium for differentiation induction at 2×10^5 cells/mL, and were suspension-cultured using a non-cell adhesive culture plate to conduct serum-free culture (SFEB method) of suspended aggregates. In addition, Nodal inhibitor LeftyA (1 μg/ml, R&D), Wnt inhibitor Dkk1 (500 ng/ml, R&D) and BMP inhibitor BMPR1A-Fc (1.5 μg/ml, R&D) were added for the first 10 days after the start of culture for differentiation induction. After serum-free suspension culture for 16-35 days, the cell aggregates were fixed and immunostained by fluorescence antibody method. Treatment with the ROCK inhibitor, Y-27632, was initiated at 1 hour before cell separation in the same manner as in Example 1, and the inhibitor was added to maintenance culture medium for the first six days also after dissociation. For the differentiation into brain precursor cells, on day 25 of SFEB culture, floating cell aggregates were transferred into a poly-D-lysine/laminin/fibronectin-coated culture slide, and were cultured in an adhesion state for additional 10 days. In the adhesion culture, Neurobasal medium, supplemented with B27 (vitamin A-free) and 2 mM L-glutamine (both supplied by Gibco-BRL), was used as a culture medium."}, "[4]": {"system": "human embryonic stem cells", "experiment": "Cloning efficiency at clonal density (one cell per well, 96 well plates) on MEF", "conditions": "10 μM, under 1% without inhibitor", "procedure": "The cell death inhibiting effect and the influence on cloning efficiency, of ROCK inhibitor, for the human embryonic stem cell culture after dissociation to single cells were examined as follows. […] The number of formed colonies was counted six days after culture in the maintenance culture medium. ROCK inhibitor Y-27632 was added at the concentration of 10 μM one hour prior to detaching the cells from the feeder layer, and the same amount was added to culture in the same amount after the detachment. Also, to evaluate whether promotion of cloning would be caused by the autocrine factor of human embryonic stem cell, a similar experiment was performed in 96 well culture plates at clonal density (one cell per well) of human embryonic stem cells, and the cloning efficiency was determined."}, "[5]": {"system": "human embryonic stem cells (KhES-1)", "experiment": "Cloning efficiency (colony formation) of dissociated human ES cells at low density on MEF feeder layer", "conditions": "for cloning efficiency compared to without the inhibitors: Fasudil/HA1077 10 μM, H-1152 200 nM, other kinase inhibitors at ranges of b100", "from_the_text": "The Human embryonic stem cells used for the experiments described herein were embryonic stem cells (KhES-1, KhES-2 and KhES-3) from human blastocysts established in the laboratory of Norio Nakatsuji, at the Institute for Frontier Medical Sciences, Kyoto University, which were distributed and used (mainly KhES-1) following the human embryonic stem cell guidelines of the Japanese government. In accordance with the method of the Nakatsuji laboratory (Suemori et al., Biochem Biophys Res Commun. 345, 926-32 (2006)), undifferentiated human embryonic stem cells were cultured on a plastic culture dish with mouse embryonic fibroblasts (inactivated with mitomycin, MEF) seeded as a feeder layer of cells. More specifically, the culture medium containing comprising KSR (Invitrogen/Gibco-BRL) at the final concentration of 20%, 1×NEAA (non-essential amino acids, Invitrogen/Gibco BRL), 2 mM L-giutaminic acid and 0.1 mM 2-mercaptoethanol in D-MEM F12 (Sigma D6421) was used, and the culturing was performed at 37° C., 5% CO2. Passaging was performed in every three or four days, and the embryonic stem cells were detached from the feeder layer using the dissociation liquid (containing 0.25% trypsin, 1 mg/mi collagenase IV solution, 1 mM CaCl2 in a phosphate buffered saline; all of which from Invitrogen/Gibco-BRL), followed by dissociated into small cell clumps (of about 50-100 cells) by pipetting, and then were seeded on the feeder layer which had been formed from seeding MEF on the day before.\nThe cell death inhibiting effect and the influence on cloning efficiency, of ROCK inhibitor, for the human embryonic stem cell culture after dissociation to single cells were examined as follows. […] The embryonic stem cell clumps ware dissociated to single cells by trypsin digestion (0.25% trypsin—EDTA, at 37° C. for 5 minutes), and seeded on a MEF feeder layer in 96 well culture plates at low density (500 cells/0.32 cm^2 in 0.15 ml of medium). The number of formed colonies was counted six days after culture in the maintenance culture medium. ROCK inhibitor Y-27632 was added at the concentration of 10 μM one hour prior to detaching the cells from the feeder layer, and the same amount was added to culture in the same amount after the detachment.\nThe effects of other ROCK inhibitors on the cloning efficiency of human embryonic stem cells in maintenance culture were evaluated using methods as described in example 1. The ROCK inhibitors, Fasudil/HA1077 (10 μM) and H-1152 (200 nM) were used. Also, inhibitors for other kinases were used for reference. The inhibitors for other kinases used were: cAMP-Rp (1-100 μM) and KT5720 (5-500 nM), which are protein kinase A inhibitors; bisindolylmaleimide (0.01-5 μM) and staurosporine (1-50 nM), which are protein kinase C inhibitors; PD98059 (0.5-50 μM), which is an MAPK inhibitor; LY294002 (1-50 μM), which is a PI3K inhibitor; and ML-7 (0.3-30 μM), which is an MLCK inhibitor."}, "hES cells (KhES-3)": {"system": "hES cells (KhES-3)", "conditions": "human, 3 months", "procedure": "FIGS. 4A-4L—Analysis of hES cells cultured in the presence of Y-27632 at low density. (FIGS. 4A-4C) Immunostaining of E-cadherin (FIG. 4A), Oct3/4 (FIG. 4B) and SSEA-4 (FIG. 4C) in Y-27632-treated hES cells (KhES-1) after extended passaging (30 times) at low density with Y-27632 treatment. Lower panels show DAPI staining (blue). (FIGS. 4D-4G) Histological analysis (hematoxylin-eosin staining, […] paraffin section) of teratoma tissues formed after subcapsular injection of hES cells (KhES-1) following extended passaging with Y-27632 into SCID mouse testes. (FIG. 4D) Cartilage, (FIG. 4E) neuroepithelium, (FIG. 4F) pigmented epithelium, and (g) gut-like mucosa with columnar epithelium. (FIG. 4H, FIG. 4I) After extended passaging involving low-density culture with Y-27632 treatment, efficient colony formation from dissociated hES cells (32.5±11%; KhES-1) remained dependent on Y-27632 (FIG. 4I) and few colonies were seen without it (FIG. 4H). (FIG. 4J) Dose-response relationship of two selective ROCK inhibitors (Y-27632, Fasudil; the cloning efficiency was 1.3±0.8% and 25.1±1.6% without and with 10 μM Fasudil; P<0.001, n=3) and two unrelated kinase inhibitors (cAMP-Rp, LY294002) on colony formation (KhES-1). Y-axis, ratios of promoting activity of colony formation to that with 10 μM Y-27632. […]"}, "human ES cells (KhES-1) [6]": {"system": "human ES cells (KhES-1)", "experiment": "Feeder-free culture of singly-dissociated human ES cells, colony formation", "conditions": "10 μM Y-27632, feeder-free, MEF-conditioned medium, 500 cells/well; less than 0.2% untreated", "procedure": "Specifically, according to the above literature, MEF cells cultured to confluency were lysed on a culture dish by deoxycholate method to leave only extracellular matrix. Singly-dissociated human ES cells (500 cells/well of a 96-well plate) were seeded onto them under Y-2763 treatment (10 μM or 0 μM) by the same method as for the routine culture on MEF cells (abovementioned Example). Conditioned medium, in which human ES cell maintenance medium and MEF were preliminarily cultured for one day, was used as a culture medium. The number of human ES cell colonies formed 5 days later were counted."}, "human ES cells [7]": {"system": "human ES cells", "experiment": "Maintenance culture of singly-dissociated human ES cells on MEF with different time courses of treatment (survival, growth, apoptosis)", "conditions": "for population doubling time: days 2 to 6 after start of dissociation culture", "procedure": "As for the maintenance culture of singly-dissociated human ES cells, in order to examine whether Y-27632 promotes cell survival at the early phase of dissociation culture, Y-27632 treatment time was divided into the following three groups to compare cell survival-promoting effects in maintenance culture. Group 1: Y-27632 treatment (10 μM, same below) was conducted as 1 hour-pretreatment and only for the first 12 hours of culture after dissociation in the process of dissociation culture of human ES cells. Group 2: Y-27632 treatment was conducted as 1 hour-pretreatment and for the entire culture period after dissociation in the process of dissociation culture of human ES cells. Group 3: No Y-27632 treatment was conducted. In these groups, surviving cells on day 3 per seeded cells (5×10^4 cells per one well of a 6-well plate) were counted in maintenance culture system on MEF layer. In the same experiment as in the above Example 7, the effect of Y-27632 on the cell growth for 6 days after the start of dissociation culture was examined in Groups 1 and 2 by extending the culture period to 6 days."}}, "note": "Values joined by “and” are separate entries in the source; they are usually repeats but may differ in a detail not shown here. Equal values may be shown once. Residues, ends and D or L forms follow the SMILES beside them. *: point of attachment. Cbz = O=C(OCc1ccccc1)*; CH2F = FC*"}
{"compound": "C[C@@H](N)[C@H]1CC[C@H](C(=O)Nc2ccncc2)CC1", "note": "[Y-27632]", "values": [{"measurement": "TUNEL-positive (apoptotic) cells", "setting": "human ES cells (KhES-1) [1]", "value": 9, "unit": "%"}, {"measurement": "surviving cells on day 6 (of plated cells)", "setting": "human ES cells (KhES-1) [2]", "value": 70, "unit": "%"}, {"measurement": "Oct3/4 positive cells (undifferentiated-state ES cell marker)", "setting": "human ES cells [3]; day 24 of differentiation culture", "value": "less than 10%"}, {"measurement": "Pax6-positive cells", "setting": "human ES cells [3]; day 24 of differentiation culture, Y-27632 first six days, with LeftyA, Dkk1, BMPR1A-Fc", "value": "about 80%"}, {"measurement": "cell aggregates with many Bf1 positive cells (brain precursor marker)", "setting": "human ES cells [3]; day 35 of differentiation culture", "value": "about 60%"}, {"measurement": "cloning efficiency", "setting": "[4]", "value": 25, "unit": "%"}, {"measurement": "cloning efficiency (ratio of formed colonies to initially seeded human embryonic stem cells)", "setting": "[5]; 10 μM Y-27632, 500 cells/well on MEF, six days culture, 1% without inhibitor", "value": 27, "unit": "%"}, {"measurement": "colony formation from dissociated hES cells after extended passaging", "setting": "[5]; KhES-1 after extended passaging (low-density culture with Y-27632 treatment), few colonies without it", "value": "32.5±11", "unit": "%"}, {"measurement": "normal karyotype", "setting": "hES cells (KhES-3)", "value": 100, "unit": "%"}, {"measurement": "cloning efficiency per seeded human ES cell, feeder-free", "setting": "human ES cells (KhES-1) [6]", "value": "10.2% and 10.2±1.2%"}, {"measurement": "surviving cells on day 3 per seeded cells", "setting": "human ES cells [7]; Group 1: 10 μM, 1 hour pretreatment and first 12 hours after dissociation only", "value": 270, "unit": "%"}, {"measurement": "number of cells on day 6 relative to initially seeded cells", "setting": "human ES cells [7]; Group 1: first 12 hours only", "value": 670, "unit": "%"}, {"measurement": "population doubling time", "setting": "human ES cells [7]; Group 1", "value": 49.0, "unit": "h"}, {"measurement": "surviving cells on day 3 per seeded cells", "setting": "human ES cells [7]; Group 2: 10 μM, 1 hour pretreatment and entire culture period", "value": 290, "unit": "%"}, {"measurement": "number of cells on day 6 relative to initially seeded cells", "setting": "human ES cells [7]; Group 2: entire culture period", "value": 860, "unit": "%"}, {"measurement": "population doubling time", "setting": "human ES cells [7]; Group 2", "value": 41.5, "unit": "h"}, {"measurement": "percentage of apoptosis (active Caspase 3-positive cells)", "setting": "human ES cells [7]; both Groups 1 and 2, days 3 and 5", "value": "less than 1%"}]}
{"compound": "COC(=O)C[C@H](NC(=O)[C@H](C)NC(=O)[C@@H](NC(=O)OCc1ccccc1)C(C)C)C(=O)CF", "note": "[ZVAD] (Cbz-Val-Ala-Asp(OMe)-CH2F)", "values": [{"measurement": "TUNEL-positive (apoptotic) cells", "setting": "human ES cells (KhES-1) [1]", "value": 72, "unit": "%"}]}
{"compound": "O=S(=O)(c1cccc2cnccc12)N1CCCNCC1", "note": "[Fasudil]", "values": [{"measurement": "cloning efficiency", "setting": "[5]; 10 μM Fasudil, KhES-1, 1.3±0.8% without, P<0.001, n=3", "value": "25.1±1.6", "unit": "%"}, {"measurement": "cloning efficiency compared to without the inhibitors", "setting": "[5]", "value": "significant enhanced cloning efficiencies"}]}
{"compound": "Cc1cncc2cccc(S(=O)(=O)N3CCCNC[C@@H]3C)c12", "note": "[H-1152]", "values": [{"measurement": "cloning efficiency compared to without the inhibitors", "setting": "[5]", "value": "significant enhanced cloning efficiencies"}]}
